Structures can show the parent of a compound that is named as a salt.
Experiment: In vitro inhibition of calcium phosphate crystallization in human plasma (spectrophotometric assay)
Format: biochemical
Settings: 0-100 μM, 1.5 mM phosphate, 12.5 mM calcium, pH 7.4, absorbance 550 nm, slope 6-24 min, read-out: Relative Potency
Description: The in vitro efficacy of the IP4-4,6 substituted derivatives (e.g., Compounds 1 to 53) of the invention on the inhibition of calcium phosphate crystallization in human plasma samples was evaluated according to a spectrophotometric assay previously described in the art (Ferrer M, et al., Sci Rep 2017; 7:6858, doi:10.1038/s41598-017-07203-x).
A 96-well plate was employed. Plasma was spiked (1 volume of the IP4-4,6 substituted derivatives of the invention per 19 volumes of plasma) with increasing concentrations of the derivatives in the range of 0-100 μM. Plasma was then centrifuged at 10,000 g at rt and subsequently mixed with a mixture of 5 mM hydrogen phosphate and 41.67 mM calcium to attain final concentrations of 1.5 mM phosphate and 12.5 mM calcium, respectively. All reagent solutions were filtered, and pH adjusted to 7.4.
Crystallization of calcium phosphate was monitored spectrophotometrically for 30 min at rt by measuring the increments in absorbance at 550 nm using the Biotek Powerwave XS Microplate spectrophotometer (BioTek Instruments, Inc., Winooski, VT, US). The plate was incubated at rt in an orbital shaker and absorbance measured every 3 min.
Plasma crystallization was assessed based on slope measurement in the linear range between 6 and 24 min from plots of increase in absorbance versus logarithm of time. The efficacy of different myo-inositol phosphates derivatives in preventing in vitro formation of calcium phosphate crystals was assessed in human plasma samples using the slopes obtained between 6- and 24-min. Inhibition of crystallization was measured by comparing the slopes of the control sample (blank plasma) with those of samples containing the inhibitor as shown below: […]

`O=C(O)CCCC(=O)NCCCOC1C(OP(=O)(O)O)C(OCCCNC(=O)CCCC(=O)O)C(OP(=O)(O)O)C(OP(=O)(O)O)C1OP(=O)(O)O` (centres unmarked) [Compound 45, 4,6-O-bis((3-(4-carboxybutanamido)propyl))-myo-inositol-1,2,3,5-tetrakis(phosphate) decasodium salt] and `O=C(O)CCCOC1C(OP(=O)(O)O)C(OCCCC(=O)O)C(OP(=O)(O)O)C(OP(=O)(O)O)C1OP(=O)(O)O` (centres unmarked) [Compound 52, 4,6-O-bis(3-carboxypropyl)-myo-inositol-1,2,3,5-tetrakis(phosphate) decasodium salt] cannot be ordered by EC50: ≤ 5 µM for the first, ≤ 5 µM for the second.

Compared with `COC(=O)NCCCOC1C(OP(=O)(O)O)C(OCCCNC(=O)OC)C(OP(=O)(O)O)C(OP(=O)(O)O)C1OP(=O)(O)O` (centres unmarked) [Compound 24, 4,6-O-bis(3-((methoxycarbonyl)amino)propyl)-myo-inositol-1,2,3,5-tetrakis(phosphate) octasodium salt], `COC(=O)NCCCCCOC1C(OP(=O)(O)O)C(OCCCCCNC(=O)OC)C(OP(=O)(O)O)C(OP(=O)(O)O)C1OP(=O)(O)O` (centres unmarked) [Compound 25, 4,6-O-bis(5-((methoxycarbonyl)amino)pentyl)-myo-inositol-1,2,3,5-tetrakis(phosphate) octasodium salt] is lower in EC50: > 10 µM for the first, ≤ 5 µM for the second.

`COCCCn1cc(CO[C@@H]2[C@@H](OP(=O)(O)O)[C@H](OCc3cn(CCCOC)nn3)[C@@H](OP(=O)(O)O)[C@@H](OP(=O)(O)O)[C@H]2OP(=O)(O)O)nn1` [Compound 32, 4,6-O-bis((1-(3-methoxypropyl)-1H-1,2,3-triazol-4-yl)methyl)-myo-inositol-1,2,3,5-tetrakis(phosphate) octasodium salt] and `COCc1cn(CCCCCOC2C(OP(=O)(O)O)C(OCCCCCn3cc(COC)nn3)C(OP(=O)(O)O)C(OP(=O)(O)O)C2OP(=O)(O)O)nn1` (centres unmarked) [Compound 38, 4,6-O-bis(5-(4-(methoxymethyl)-1H-1,2,3-triazol-1-yl)pentyl)-myo-inositol-1,2,3,5-tetrakis(phosphate) octasodium salt] cannot be ordered by EC50: ≤ 5 µM for the first, ≤ 5 µM for the second.

`O=C(O)CCCCCCCCCCOC1C(OP(=O)(O)O)C(OCCCCCCCCCCC(=O)O)C(OP(=O)(O)O)C(OP(=O)(O)O)C1OP(=O)(O)O` (centres unmarked) [Compound 19, 4,6-O-bis(10-carboxydecyl)-myo-inositol-1,2,3,5-tetrakis(phosphate) decasodium salt] and `O=P(O)(O)OC1C(OCCCCCCCCCCO)C(OP(=O)(O)O)C(OP(=O)(O)O)C(OP(=O)(O)O)C1OCCCCCCCCCCO` (centres unmarked) [Compound 7, 4,6-O-bis(10-hydroxydecyl)-myo-inositol-1,2,3,5-tetrakis(phosphate) octasodium salt] cannot be ordered by EC50: > 10 µM for the first, > 10 µM for the second.

`C#CCOC1C(OP(=O)(O)O)C(OCC#C)C(OP(=O)(O)O)C(OP(=O)(O)O)C1OP(=O)(O)O` (centres unmarked) [Compound 53, 4,6-O-Dipropargyl-myo-inositol-1,2,3,5-tetrakis(phosphate) octasodium salt] and `NCCCOC1C(OP(=O)(O)O)C(OCCCN)C(OP(=O)(O)O)C(OP(=O)(O)O)C1OP(=O)(O)O` (centres unmarked) [Compound 13, 4,6-O-bis(3-aminopropyl)-myo-inositol-1,2,3,5-tetrakis(phosphate) octasodium salt] cannot be ordered by EC50: ≤ 5 µM for the first, 5 to 10 µM for the second.

`COCCCCCOC1C(OP(O)(O)=S)C(OCCCCCOC)C(OP(O)(O)=S)C(OP(O)(O)=S)C1OP(O)(O)=S` (centres unmarked) [Compound 51, 4,6-O-bis(5-Methoxypentyl)-myo-inositol-1,2,3,5-tetrakis(thiophosphate) octasodium salt] and `COCCCCCCCCCOC1C(OP(=O)(O)O)C(OCCCCCCCCCOC)C(OP(=O)(O)O)C(OP(=O)(O)O)C1OP(=O)(O)O` (centres unmarked) [Compound 12, 4,6-O-bis(9-methoxynonyl)-myo-inositol-1,2,3,5-tetrakis(phosphate) octasodium salt] cannot be ordered by EC50: > 10 µM for the first, > 10 µM for the second.

`O=P(O)(O)O[C@@H]1[C@@H](OCCCC(F)(F)F)[C@H](OP(=O)(O)O)[C@H](OP(=O)(O)O)[C@H](OP(=O)(O)O)[C@H]1OCCCC(F)(F)F` [Compound 22, 4,6-O-bis(4,4,4-trifluorobutyl)-myo-inositol-1,2,3,5-tetrakis(phosphate) octasodium salt] and `O=P(O)(O)OC1C(OCCC2CC2)C(OP(=O)(O)O)C(OP(=O)(O)O)C(OP(=O)(O)O)C1OCCC1CC1` (centres unmarked) [Compound 28, 4,6-O-bis(2-cyclopropylethyl)-myo-inositol-1,2,3,5-tetrakis(phosphate) octasodium salt] cannot be ordered by EC50: ≤ 5 µM for the first, ≤ 5 µM for the second.

Compared with `O=P(O)(O)OC1C(OCCCCCn2cccn2)C(OP(=O)(O)O)C(OP(=O)(O)O)C(OP(=O)(O)O)C1OCCCCCn1cccn1` (centres unmarked) [Compound 16, 4,6-O-bis(5-(1H-pyrazol-1-yl)pentyl)-myo-inositol-1,2,3,5-tetrakis(phosphate) octasodium salt], `O=P(O)(O)OC1C(OCCCCCn2cncn2)C(OP(=O)(O)O)C(OP(=O)(O)O)C(OP(=O)(O)O)C1OCCCCCn1cncn1` (centres unmarked) [Compound 17, 4,6-O-bis(5-(1H-1,2,4-triazol-1-yl)pentyl)-myo-inositol-1,2,3,5-tetrakis(phosphate) octasodium salt] is higher in EC50: ≤ 5 µM for the first, > 10 µM for the second.

Going from `CCCCCCCCCCOC1C(OP(=O)(O)O)C(OCCCCCCCCCC)C(OP(=O)(O)O)C(OP(=O)(O)O)C1OP(=O)(O)O` (centres unmarked) [Compound 2, 4,6-O-didecyl-myo-inositol-1,2,3,5-tetrakis(phosphate) octasodium salt] to `CCCCCCCOC1C(OP(=O)(O)O)C(OCCCCCCC)C(OP(=O)(O)O)C(OP(=O)(O)O)C1OP(=O)(O)O` (centres unmarked) [Compound 5, 4,6-O-diheptyl-myo-inositol-1,2,3,5-tetrakis(phosphate) octasodium salt], the EC50 falls from > 10 µM to ≤ 5 µM. The second is the more potent here.

`CCCNC(=O)NCCCCCOC1C(OP(=O)(O)O)C(OCCCCCNC(=O)NCCC)C(OP(=O)(O)O)C(OP(=O)(O)O)C1OP(=O)(O)O` (centres unmarked) [Compound 30, 4,6-O-bis(5-(3-propylureido)pentyl)-myo-inositol-1,2,3,5-tetrakis(phosphate) octasodium salt] and `CC(=O)NCCCCCO[C@@H]1[C@@H](OP(=O)(O)O)[C@H](OCCCCCNC(C)=O)[C@@H](OP(=O)(O)O)[C@@H](OP(=O)(O)O)[C@H]1OP(=O)(O)O` [Compound 27, 4,6-O-bis(5-acetamidopentyl)-myo-inositol-1,2,3,5-tetrakis(phosphate) octasodium salt] cannot be ordered by EC50: ≤ 5 µM for the first, ≤ 5 µM for the second.

`O=C(O)c1cn(CCCCCCOC2C(OP(=O)(O)O)C(OCCCCCCn3cc(C(=O)O)nn3)C(OP(=O)(O)O)C(OP(=O)(O)O)C2OP(=O)(O)O)nn1` (centres unmarked) [Compound 40, 4,6-O-(6-(4-carboxy-1H-1,2,3-triazol-1-yl)hexyl)-myo-inositol-1,2,3,5-tetrakis(phosphate) decasodium salt] and `O=C(NCCCCCOC1C(OP(=O)(O)O)C(OCCCCCNC(=O)c2cccs2)C(OP(=O)(O)O)C(OP(=O)(O)O)C1OP(=O)(O)O)c1cccs1` (centres unmarked) [Compound 49, 4,6-O-bis(5-(thiophene-2-carboxamido)pentyl)-myo-inositol-1,2,3,5-tetrakis(phosphate) octasodium salt] cannot be ordered by EC50: ≤ 5 µM for the first, 5 to 10 µM for the second.

For `O=C(NCCCOC1C(OP(=O)(O)O)C(OCCCNC(=O)NC2CCCC2)C(OP(=O)(O)O)C(OP(=O)(O)O)C1OP(=O)(O)O)NC1CCCC1` (centres unmarked) [Compound 47, 4,6-O-bis(3-(3-cyclopentylureido)propyl)-myo-inositol-1,2,3,5-tetrakis(phosphate) octasodium salt], the EC50 was ≤ 5 µM.
